The values that follow come from patent US8592485B2, “Methods and pharmaceutical compositions for treating the animal central nervous system for psychiatric disorders” (HealthPartners Research Foundation, priority 2010, dated 2013).

One series deals with GSK3b. In words: Hippocampal pGSK3b/GSK3b ratio in C57 mice after DFO (western blot, ELISA). In kind it is in vivo. Particulars: hippocampus (FIG. 1A); for higher ratio of pGSK3b/GSK3b than PBS mice: upper third of nasal cavity, five days/week for four weeks. The method, then:
The study method providing results in FIGS. 1A and 1B comprised normal C57 mice which were treated with DFO by administration to the upper third of the nasal cavity, thereby delivering the DFO directly to the CNS by bypassing the blood-brain barrier. Treatment groups consisted of 1% DFO, 10% DFO and saline. Mice were treated five days/week for four weeks. Mice were then dosed a final time, euthanized after 30 minutes, brain tissues collected an analyzed for biochemical changes. Protein extraction was achieved by homogenization of frozen brain tissues in 5 volumes of ice-cold RIPA buffer supplemented with protease inhibitor cocktail and phosphatase inhibitor cocktail. Homogenates were centrifuged at 20,000×g for 20 minutes at 4C. Supernatant was collected from the cortex, diencephalon and hippocampus and stored at −70C until analysis by western blot and ELISA.
On the technique in general: Immunoblotting shows a protein as a band on a membrane.

The conditions of series [1]: cited from earlier work.
The conditions of series [2]: cited from earlier work. The source holds these as a separate data set.
Series [3] is described as follows: Intranasal delivery of DFO (bound to 59Fe) to rats, tissue concentrations by scintillation counting.
Description: Delivery of intranasal DFO to the upper one-third of the nasal cavity has been assessed by administering 6 mg DFO bound to 6 μCi of ^59Fe (as ^59FeCl3) to rats under anesthesia. The IN dose in 60 μL was administered as 6 μL drops over twenty minutes. Following delivery, tissues were removed for analysis.

Consider `CC(=O)N(O)CCCCCNC(=O)CCC(=O)N(O)CCCCCNC(=O)CCC(=O)N(O)CCCCCN` [DFO, deferoxamine], for which the entries for the “higher ratio of pGSK3b/GSK3b than PBS mice” value in the series on GSK3b (1% DFO) and in the series with GSK3b (10% DFO) were 99.8% and 214%, respectively. The “higher ratio of pGSK3b/GSK3b of 10% DFO mice than 1% DFO mice” value in the series on GSK3b (10% DFO versus 1% DFO, intranasal) worked out at 57.4%. The “effect of injection of an intravenous bolus” value in series [1] is on record as “acute hypotension”. The typical plasma half-life result in series [2] (humans, intravenous) is “less than 10 minutes”. The “crossing of the blood-brain barrier” value in series [2] (intravenously or systemically administered) is “does not efficiently or effectively cross the blood-brain barrier”.

On to `CC(=O)N([O-])CCCCCNC(=O)CCC(=O)N([O-])CCCCCNC(=O)CCC(=O)N([O-])CCCCCN.[Fe+3]` [ferrioxamine], for which, in series [3] (5 minute intervals from dosing up to 25 minutes post-dose), the “blood concentrations of ferrioxamine” value is recorded as “quite low”. In addition, in series [3] (intranasal 6 mg DFO bound to 6 uCi 59Fe), the “labeled ferrioxamine in brain by scintillation counting” value was “detected throughout the brain”.
